According to patent US9670199B2, “Ergoline derivatives as dopamine receptor modulators” (REGENTS OF THE UNIVERSITY OF MINNESOTA, priority 2012, dated 2017):

Legend:
5-HT2B receptor [1] = biological target: T1, 5-HT2B receptor (Homo sapiens, UniProt P41595); experiment: 5-HT2B functional assay (agonism), HTRF quantitation of IP1 accumulation; type: cell-based; conditions: for 5-HT2B agonism (type of agonist): result in words
Source text: (§1) The biological activity of representative compounds of the invention can be determined using a number of assays that are known.

5-HT2B receptor [2] = biological target: T1, 5-HT2B receptor; experiment: 5-HT2B functional assay, antagonism against serotonin; type: cell-based; conditions: result in words
Method: (§2) The biological activity of representative compounds of the invention can be determined using a number of assays that are known. For example, 5-HT2B functional assays were performed following the procedure reported by Porter, R. H. P., et al., Br. J. Pharmacol. 1999, 128, 13-20. 5-HT2B binding assays were performed following the procedure reported by Choi, D.-S., et al., FEBS Lett. 1994, 352, 393-399, using an agonist radioligand. D2 and D4 functional assays were performed following the method reported by Jensen, N. H., et al., Neuropsychopharmacology 2007, 33, 2303-2312.

D2 receptor = D2 receptor (Homo sapiens, UniProt P14416); experiment: D2 functional assay; type: cell-based
Sequence of D2 receptor (P14416 whole entry): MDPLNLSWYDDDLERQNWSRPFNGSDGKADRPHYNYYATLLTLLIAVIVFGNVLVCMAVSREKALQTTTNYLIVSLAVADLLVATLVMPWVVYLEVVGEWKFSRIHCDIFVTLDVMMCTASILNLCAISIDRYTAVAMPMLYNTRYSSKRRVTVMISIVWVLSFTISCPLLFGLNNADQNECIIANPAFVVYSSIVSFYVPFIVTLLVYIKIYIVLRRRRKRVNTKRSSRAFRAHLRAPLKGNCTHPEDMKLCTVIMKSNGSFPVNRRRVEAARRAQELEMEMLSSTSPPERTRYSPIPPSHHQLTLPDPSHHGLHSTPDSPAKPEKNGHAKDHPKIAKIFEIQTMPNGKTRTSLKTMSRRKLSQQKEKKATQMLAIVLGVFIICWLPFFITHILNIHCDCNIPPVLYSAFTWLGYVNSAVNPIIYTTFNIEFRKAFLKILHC
Method: as §2

D4 receptor = biological target: T2, D4 receptor (Homo sapiens, UniProt P21917); experiment: D4 functional assay; type: cell-based; conditions: result in words
T2 sequence (P21917 1-419): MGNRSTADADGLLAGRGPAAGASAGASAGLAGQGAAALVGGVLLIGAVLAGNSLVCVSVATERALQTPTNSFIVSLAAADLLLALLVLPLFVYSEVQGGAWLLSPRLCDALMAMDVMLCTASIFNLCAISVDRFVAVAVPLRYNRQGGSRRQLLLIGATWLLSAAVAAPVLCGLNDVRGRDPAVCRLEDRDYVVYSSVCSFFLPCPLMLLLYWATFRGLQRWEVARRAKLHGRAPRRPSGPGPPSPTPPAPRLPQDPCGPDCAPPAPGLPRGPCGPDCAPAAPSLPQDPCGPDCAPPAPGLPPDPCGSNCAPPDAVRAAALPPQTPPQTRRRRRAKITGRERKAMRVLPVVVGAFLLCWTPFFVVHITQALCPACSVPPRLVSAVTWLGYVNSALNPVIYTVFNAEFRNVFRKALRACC
Method: as §2

male rats = experiment: Effects on sexual function in rats; type: in vivo, rat; conditions: gavage
Source text: Effects of Cabergoline on Sexual Function in Rats. […] This can be tested by seeing whether it can potentiate the induction of a conditioned partner preference. For example, a study could be performed where rats take the drug immediately before their first sexual experience with an almond scented female and 4 days later the cabergoline rats are put in an open field with two females, one scented and the other unscented. Males given their first, e.g., 10, copulatory experiences with scented females would show a significant conditioned ejaculatory preference to ejaculate preferentially with the scented female. […] Cabergoline could also be similarly tested on males that have had their ejaculations reduced to near zero by chronic administration of the SSRI fluoxetine. SSRIs are known to induce anorgasmia, and currently there is no treatment for this side effect.

5-HT2B receptor [3] = biological target: T1, 5-HT2B receptor; experiment: 5-HT2B competitive binding assay against 125I-radiolabeled 2,5-dimethoxy-4-iodoamphetamine (agonist radioligand); conditions: result in words
Source text: as §1

T1 sequence (P41595 whole entry): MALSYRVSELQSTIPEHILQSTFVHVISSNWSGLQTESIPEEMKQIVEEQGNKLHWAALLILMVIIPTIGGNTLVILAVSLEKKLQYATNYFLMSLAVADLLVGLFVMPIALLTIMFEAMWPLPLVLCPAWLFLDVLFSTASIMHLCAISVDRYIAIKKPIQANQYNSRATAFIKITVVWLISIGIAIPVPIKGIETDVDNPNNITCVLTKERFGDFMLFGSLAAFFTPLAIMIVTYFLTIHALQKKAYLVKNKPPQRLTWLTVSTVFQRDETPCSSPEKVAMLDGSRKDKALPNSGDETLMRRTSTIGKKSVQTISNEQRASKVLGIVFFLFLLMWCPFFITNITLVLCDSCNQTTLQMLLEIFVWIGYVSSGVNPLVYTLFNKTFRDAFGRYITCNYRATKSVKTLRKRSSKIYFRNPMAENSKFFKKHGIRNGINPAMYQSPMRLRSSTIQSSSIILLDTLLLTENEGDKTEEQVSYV

CN(C)CCCNC(=O)[C@@H]1C[C@@H]2c3cccc4c3c(cn4C)C[C@H]2N(C)C1 [Compound 14, (5R,8R,10R)-1,6-Dimethyl-N-[3-(dimethylamino)propyl]ergoline-8-carboxamide]
Emax (5-HT2B receptor [1]; read-out: 5-HT2B Emax): < 12%
5-HT2B agonism (type of agonist) (5-HT2B receptor [1]): minimal to no agonism
5-HT2B antagonism against serotonin (5-HT2B receptor [2]): potent antagonists

CCNC(=O)N(CCCN(C)C)C(=O)[C@@H]1C[C@@H]2c3cccc4c3c(cn4C)C[C@H]2N(C)C1 [Compound 9, 1,6-Dimethylcabergoline]
5-HT2B agonism (type of agonist) (5-HT2B receptor [1]): no agonism
5-HT2B antagonism against serotonin (5-HT2B receptor [2]): potent antagonists
EC50 (D2 receptor): 1.4 nM
Emax (D2 receptor): 50%
D2 agonism (type of agonist) (D2 receptor; result in words): potent but partial D2 agonist
D4 agonism (type of agonist) (D4 receptor): full D4 agonist

C=CCN1C[C@H](C(=O)N(CCCN(C)C)C(=O)NCC)C[C@@H]2c3cccc4[nH]cc(c34)C[C@H]21 [cabergoline]
5-HT2B agonism (type of agonist) (5-HT2B receptor [1]): full agonists
anticipatory level changes prior to copulation (anticipatory desire) (male rats): increased
ejaculation latencies vs controls (male rats): shorter ejaculation latencies
intromissions before ejaculation vs controls (male rats): more intromissions
number of ejaculations vs controls (male rats): significantly more times

COC(OC)[C@@H]1C[C@@H]2c3cccc4c3c(cn4C)C[C@H]2N(C)C1 [Compound 15]
5-HT2B agonism (type of agonist) (5-HT2B receptor [1]): no agonism
5-HT2B antagonism against serotonin (5-HT2B receptor [2]): potent antagonists

C=CCN1C[C@H](C(=O)N(CCCN2CCOCC2)C(=O)NCC)C[C@@H]2c3cccc4[nH]cc(c34)C[C@H]21 [Compound 1, (5R,8R,10R)-6-Allyl-N-[3-(morpholino)propyl]-N-[(ethylamino)carbonyl]-ergoline-8-carboxamide]
activity/potency at 5-HT2B receptor in radioactive binding assay, compared with cabergoline (5-HT2B receptor [3]): not significantly less active
5-HT2B agonism (type of agonist) (5-HT2B receptor [1]): full agonists
